From ChEMBL document CHEMBL4138163, “DMXAA-pyranoxanthone hybrids enhance inhibition activities against human cancer cells with multi-target functions” (Eur J Med Chem, 2018)
The source made the active and inactive calls. The rule behind the calls is not given here.

Experiments:
K562 [1] = experiment: Antiproliferative activity against human K562 cells after 24 hrs by MTT assay; assay type: functional, cell-based; conditions: K562, 24 h
MDA-MB-231 [2] = experiment: Antiproliferative activity against human MDA-MB-231 cells after 24 hrs by MTT assay; assay type: functional, cell-based; conditions: MDA-MB-231, 24 h
HepG2 [3] = experiment: Antiproliferative activity against human HepG2 cells after 24 hrs by MTT assay; assay type: functional, cell-based; conditions: HepG2, 24 h
MCF7 [4] = experiment: Antiproliferative activity against human MCF7 cells after 24 hrs by MTT assay; assay type: functional, cell-based; conditions: MCF7, 24 h
HepG2 [5] = experiment: Antiproliferative activity against human HepG2 cells co-treated with DMXAA at 1:1 molar ratio after 24 hrs by MTT assay; assay type: functional, cell-based; conditions: HepG2, 24 h
HepG2 [6] = experiment: Cell cycle arrest in human HepG2 cells assessed as accumulation at S phase co-treated with DMXAA at 1:1 molar ratio after 28 hrs by propidium iodide staining-based flow cytometric method
HepG2 [7] = experiment: Induction of apoptosis in human HepG2 cells assessed as upregulation of Bid expression co-treated with DMXAA at 1:1 molar ratio after 24 hrs by Western blot method; assay type: functional, cell-based
HepG2 [8] = experiment: Induction of apoptosis in human HepG2 cells assessed as upregulation of Bid expression at 0.2 uM after 24 hrs by Western blot method; assay type: functional, cell-based
HepG2 [9] = experiment: Induction of apoptosis in human HepG2 cells assessed as increase in cleaved caspase-9 levels co-treated with DMXAA at 1:1 molar ratio after 24 hrs by Western blot method; assay type: functional, cell-based
HepG2 [10] = experiment: Induction of apoptosis in human HepG2 cells assessed as increase in cleaved PARP levels at 0.2 uM after 24 hrs by Western blot method; assay type: functional, cell-based
HepG2 [11] = experiment: Induction of apoptosis in human HepG2 cells assessed as downregulation of Bcl-xL expression co-treated with DMXAA at 1:1 molar ratio after 24 hrs by Western blot method; assay type: functional, cell-based
HepG2 [12] = experiment: Induction of apoptosis in human HepG2 cells assessed as necrotic cells at 0.2 uM after 24 hrs by annexin-V/propidium iodide staining-based flow cytometric method relative to control; assay type: functional
[13] = target: T1, Tumour suppressor p53/oncoprotein Mdm2 (Homo sapiens) (UniProt P04637+Q00987); experiment: Inhibition of MDM2/p53 interaction in human HepG2 cells assessed as increase in p53 to MDM2 ratio at 0.2 uM after 24 hrs by Western blot method (reference value: 0.083); assay type: cell-based
HepG2 [14] = experiment: Induction of apoptosis in human HepG2 cells assessed as ratio of Bax/Bcl-2 co-treated with DMXAA at 1:1 molar ratio after 24 hrs by Western blot method (reference value: 0.23); assay type: functional
[15] = target: T1, Tumour suppressor p53/oncoprotein Mdm2 (Homo sapiens); experiment: Inhibition of MDM2/p53 interaction in human HepG2 cells assessed as increase in p53 to MDM2 ratio co-treated with DMXAA at 1:1 molar ratio after 24 hrs by Western blot method (reference value: 0.083); assay type: cell-based
MCF7 [16] = experiment: Antiproliferative activity against human MCF7 cells co-treated with DMXAA at 1:1 molar ratio after 24 hrs by MTT assay; assay type: functional, cell-based; conditions: MCF7, 24 h
MDA-MB-231 [17] = experiment: Antiproliferative activity against human MDA-MB-231 cells co-treated with DMXAA at 1:1 molar ratio after 24 hrs by MTT assay; assay type: functional, cell-based; conditions: MDA-MB-231, 24 h
K562 [18] = experiment: Antiproliferative activity against human K562 cells co-treated with DMXAA at 1:1 molar ratio after 24 hrs by MTT assay; assay type: functional, cell-based; conditions: K562, 24 h
HepG2 [19] = experiment: Induction of apoptosis in human HepG2 cells assessed as late apoptotic cells co-treated with pyranoxanthone at 1:1 molar ratio after 24 hrs by annexin-V/propidium iodide staining-based flow cytometric method relative to control; assay type: functional
HepG2 [20] = experiment: Induction of apoptosis in human HepG2 cells assessed as downregulation of Bcl-xL expression at 0.2 uM after 24 hrs by Western blot method; assay type: functional, cell-based
HepG2 [21] = experiment: Induction of apoptosis in human HepG2 cells assessed as increase in cleaved caspase-3 levels co-treated with DMXAA at 1:1 molar ratio after 24 hrs by Western blot method; assay type: functional, cell-based
HepG2 [22] = experiment: Cell cycle arrest in human HepG2 cells assessed as accumulation at S phase at 0.2 uM after 28 hrs by propidium iodide staining-based flow cytometric method relative to control
HepG2 [23] = experiment: Induction of apoptosis in human HepG2 cells assessed as ratio of Bax/Bcl-2 at 0.2 uM after 24 hrs by Western blot method (reference value: 0.23); assay type: functional
HepG2 [24] = experiment: Induction of apoptosis in human HepG2 cells assessed as increase in cleaved caspase-9 levels at 0.2 uM after 24 hrs by Western blot method; assay type: functional, cell-based
HepG2 [25] = experiment: Induction of apoptosis in human HepG2 cells assessed as total apoptosis rate at 0.2 uM after 24 hrs by annexin-V/propidium iodide staining-based flow cytometric method relative to control; assay type: functional
HepG2 [26] = experiment: Induction of apoptosis in human HepG2 cells assessed as increase in cleaved PARP levels co-treated with DMXAA at 1:1 molar ratio after 24 hrs by Western blot method; assay type: functional, cell-based
HepG2 [27] = experiment: Induction of apoptosis in human HepG2 cells assessed as late apoptotic cells co-treated with DMXAA at 1:1 molar ratio after 24 hrs by annexin-V/propidium iodide staining-based flow cytometric method relative to control; assay type: functional
HepG2 [28] = experiment: Induction of apoptosis in human HepG2 cells assessed as increase in cleaved caspase-3 levels at 0.2 uM after 24 hrs by Western blot method; assay type: functional, cell-based
MCF7 [29] = experiment: Antiproliferative activity against human MCF7 cells co-treated with pyranoxanthone at 1:1 molar ratio after 24 hrs by MTT assay; assay type: functional, cell-based; conditions: MCF7, 24 h
HepG2 [30] = experiment: Induction of apoptosis in human HepG2 cells assessed as increase in cleaved caspase-9 levels co-treated with pyranoxanthone at 1:1 molar ratio after 24 hrs by Western blot method; assay type: functional, cell-based
HepG2 [31] = experiment: Cell cycle arrest in human HepG2 cells assessed as accumulation at S phase co-treated with pyranoxanthone at 1:1 molar ratio after 28 hrs by propidium iodide staining-based flow cytometric method
HepG2 [32] = experiment: Induction of apoptosis in human HepG2 cells assessed as early apoptotic cells at 0.2 uM after 24 hrs by annexin-V/propidium iodide staining-based flow cytometric method relative to control; assay type: functional
L02 = experiment: Antiproliferative activity against human HL-7702 cells after 24 hrs by MTT assay; assay type: functional, cell-based; conditions: L02, 24 h
NIH3T3 = experiment: Antiproliferative activity against mouse NIH/3T3 cells after 24 hrs by MTT assay; assay type: cell-based; conditions: Mus musculus, NIH3T3, 24 h
HepG2 [33] = experiment: Induction of apoptosis in human HepG2 cells assessed as late apoptotic cells at 0.2 uM after 24 hrs by annexin-V/propidium iodide staining-based flow cytometric method relative to control; assay type: functional
HepG2 [34] = experiment: Induction of apoptosis in human HepG2 cells assessed as upregulation of Bid expression co-treated with pyranoxanthone at 1:1 molar ratio after 24 hrs by Western blot method; assay type: functional, cell-based
HepG2 [35] = experiment: Induction of apoptosis in human HepG2 cells assessed as increase in cleaved caspase-3 levels co-treated with pyranoxanthone at 1:1 molar ratio after 24 hrs by Western blot method; assay type: functional, cell-based
HepG2 [36] = experiment: Induction of apoptosis in human HepG2 cells assessed as ratio of Bax/Bcl-2 co-treated with pyranoxanthone at 1:1 molar ratio after 24 hrs by Western blot method (reference value: 0.23); assay type: functional
MDA-MB-231 [37] = experiment: Antiproliferative activity against human MDA-MB-231 cells co-treated with pyranoxanthone at 1:1 molar ratio after 24 hrs by MTT assay; assay type: functional, cell-based; conditions: MDA-MB-231, 24 h
[38] = target: T1, Tumour suppressor p53/oncoprotein Mdm2 (Homo sapiens); experiment: Inhibition of MDM2/p53 interaction in human HepG2 cells assessed as increase in p53 to MDM2 ratio co-treated with pyranoxanthone at 1:1 molar ratio after 24 hrs by Western blot method (reference value: 0.083); assay type: cell-based
HepG2 [39] = experiment: Induction of apoptosis in human HepG2 cells assessed as early apoptotic cells co-treated with DMXAA at 1:1 molar ratio after 24 hrs by annexin-V/propidium iodide staining-based flow cytometric method relative to control; assay type: functional
HepG2 [40] = experiment: Induction of apoptosis in human HepG2 cells assessed as increase in cleaved PARP levels co-treated with pyranoxanthone at 1:1 molar ratio after 24 hrs by Western blot method; assay type: functional, cell-based
HepG2 [41] = experiment: Induction of apoptosis in human HepG2 cells assessed as early apoptotic cells co-treated with pyranoxanthone at 1:1 molar ratio after 24 hrs by annexin-V/propidium iodide staining-based flow cytometric method relative to control; assay type: functional
HepG2 [42] = experiment: Induction of apoptosis in human HepG2 cells assessed as downregulation of Bcl-xL expression co-treated with pyranoxanthone at 1:1 molar ratio after 24 hrs by Western blot method; assay type: functional, cell-based
HepG2 [43] = experiment: Antiproliferative activity against human HepG2 cells co-treated with pyranoxanthone at 1:1 molar ratio after 24 hrs by MTT assay; assay type: functional, cell-based; conditions: HepG2, 24 h
K562 [44] = experiment: Antiproliferative activity against human K562 cells co-treated with pyranoxanthone at 1:1 molar ratio after 24 hrs by MTT assay; assay type: functional, cell-based; conditions: K562, 24 h

T1 sequence (P04637 whole entry, looked up): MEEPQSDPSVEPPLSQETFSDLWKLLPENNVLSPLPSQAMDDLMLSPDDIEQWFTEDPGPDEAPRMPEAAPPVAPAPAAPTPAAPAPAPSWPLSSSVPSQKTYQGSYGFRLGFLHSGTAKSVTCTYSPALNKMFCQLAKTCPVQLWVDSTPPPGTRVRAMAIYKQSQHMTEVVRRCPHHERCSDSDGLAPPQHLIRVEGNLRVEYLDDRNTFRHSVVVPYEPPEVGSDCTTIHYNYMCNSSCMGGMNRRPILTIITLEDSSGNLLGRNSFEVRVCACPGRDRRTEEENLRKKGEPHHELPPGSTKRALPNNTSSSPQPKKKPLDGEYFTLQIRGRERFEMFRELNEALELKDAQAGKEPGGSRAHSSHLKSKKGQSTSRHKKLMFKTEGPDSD
T1 sequence (Q00987 whole entry, looked up): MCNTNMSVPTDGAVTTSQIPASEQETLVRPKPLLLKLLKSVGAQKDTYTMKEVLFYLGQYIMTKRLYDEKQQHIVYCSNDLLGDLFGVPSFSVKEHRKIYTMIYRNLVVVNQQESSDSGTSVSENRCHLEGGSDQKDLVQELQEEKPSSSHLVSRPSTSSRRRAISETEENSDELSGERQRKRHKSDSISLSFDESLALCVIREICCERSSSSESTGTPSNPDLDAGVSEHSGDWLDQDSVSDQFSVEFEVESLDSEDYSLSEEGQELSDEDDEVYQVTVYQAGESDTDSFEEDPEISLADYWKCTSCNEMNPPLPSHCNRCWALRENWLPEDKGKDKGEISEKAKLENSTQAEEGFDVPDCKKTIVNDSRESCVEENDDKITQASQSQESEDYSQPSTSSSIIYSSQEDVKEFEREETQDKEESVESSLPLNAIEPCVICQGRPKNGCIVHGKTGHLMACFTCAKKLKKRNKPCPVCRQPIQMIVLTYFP

Cc1ccc2c(=O)c3cccc(CC(=O)OCCCCOc4c5c(cc6c(=O)c7ccccc7oc46)CCC(C)(C)O5)c3oc2c1C
IC50 (K562 [1]): 20.6 µM
IC50 (MDA-MB-231 [2]): 19.6 µM
IC50 (HepG2 [3]): 11.9 µM
IC50 (MCF7 [4]): 33.2 µM

CC1(C)CCc2cc3c(=O)c4ccccc4oc3c(O)c2O1 [DIHYDRO-12-HYDROXY-2,2-DIMETHYL-2H,6H-PYRANO[3,2-B]XANTHEN-6-ONE]
IC50 (HepG2 [5]): 21.2 µM
Activity (HepG2 [6]): Active
Activity (HepG2 [7]): Active
Activity (HepG2 [8]): Active
Activity (HepG2 [9]): Active
Activity (HepG2 [10]): Active
Activity (HepG2 [11]): Active
Activity (HepG2 [12]): <10%
IC50 (K562 [1]): 27.8 µM
IC50 (MDA-MB-231 [2]): 59.3 µM
fold change (FC) [13]: 0.19
Ratio (HepG2 [14]): 0.58
IC50 (HepG2 [3]): 40.3 µM
fold change (FC) [15]: 0.67
IC50 (MCF7 [16]): 11.9 µM
IC50 (MDA-MB-231 [17]): 12.1 µM
IC50 (K562 [18]): 19.1 µM
Activity (HepG2 [19]): 46%
Activity (HepG2 [20]): Active
Activity (HepG2 [21]): Active
Activity (HepG2 [22]): Active
Ratio (HepG2 [23]): 0.36
Activity (HepG2 [24]): Active
Activity (HepG2 [25]): <10%
Activity (HepG2 [26]): Active
IC50 (MCF7 [4]): 102 µM
Activity (HepG2 [27]): 46%
Activity (HepG2 [28]): Active

Cc1ccc2c(=O)c3cccc(CC(=O)O)c3oc2c1C [VADIMEZAN]
IC50 (MCF7 [29]): 11.9 µM
Activity (HepG2 [30]): Active
Activity (HepG2 [10]): Active
Activity (HepG2 [31]): Active
Activity (HepG2 [32]): 13%
IC50 (L02): 101 µM
IC50 (NIH3T3): 67.8 µM
Activity (HepG2 [33]): 7%
Activity (HepG2 [34]): Active
Activity (HepG2 [35]): Active
Ratio (HepG2 [36]): 0.58
IC50 (MDA-MB-231 [37]): 12.1 µM
fold change (FC) [38]: 0.67
Activity (HepG2 [39]): 15%
Activity (HepG2 [40]): Active
Activity (HepG2 [22]): Active
Activity (HepG2 [41]): 15%
Activity (HepG2 [42]): Active
IC50 (HepG2 [43]): 21.2 µM
Activity (HepG2 [24]): Active
IC50 (K562 [44]): 19.1 µM
Activity (HepG2 [28]): Active
